In patent US6274146A, “Biologically active phytogenous proteoglycan and a method of making thereof” (priority 1999, dated 2001):

System: 1-st type of simple virus herpes, Kleiman strain
Experiment: Herpetic meningoencephalitis model in mice
Type: in vivo, white mice
Conditions: for Lethality rate / ML (mean lifespan) / Protective effect (difference between survival rates in experimental and control groups) / Survival rate: introduced 3, 24, 48, 72 and 96 h after infecting
Procedure: Proteoglycan efficiency was estimated by means of herpetic menigeoencephalitis model in mice. The 1-st type of simple virus herpes of Kleiman strained was used. The virus infectuous titer in Vero cells culture was of 6.5-7.01 1 g CPA50^1 /0.1 ml while by intracerebral or intraperitonneal introduction in white mice mass of 7-8 g it was equal to 5.5-6.0 1 g LD50 /0.03 ml. The strain is characterized by increased neurovirulence. The maximum lesion of cells of fibroblasts in hen embryons or of Vero cells (75-100%) was already observed in 18-20 h after infecting. To reproduce herpetic meningoencephalitis in mice the latter were infected with Kleiman virus intraperitonneally in volume of 0.2 ml of both 10 and 100 LD50 doses. The treatment results were estimated as a mean lifespan (ML) and the protective effect which is difference between survival rates in experimental and control groups.
*-proteoglycan was introduced 5 days before infecting
**-proteoglycan was introduced 5 days until infecting and 3 h after the
** Acyclovir was introduced in 3, 24, 48, 72 and 96 h after the infecting.

**Q.** What does the source list for `Nc1nc2c(ncn2COCCO)c(=O)[nH]1` [Acyclovir]?
**A.** Lethality rate (10 LD50 virus dose): 68%; ML (mean lifespan) (10 LD50 virus dose): 7.81 ± 1.9 days; Protective effect (difference between survival rates in experimental and control groups) (10 LD50 virus dose): 15%; Survival rate (10 LD50 virus dose): 32%; Effect observed (100 LD50 virus dose): no effect was observed; Lethality rate (100 LD50 virus dose): 100%; ML (mean lifespan) (100 LD50 virus dose): 5.3 ± 1.8 days; Protective effect (difference between survival rates in experimental and control groups) (100 LD50 virus dose): 0%; Survival rate (100 LD50 virus dose): 0%
